Measurements taken from ChEMBL document CHEMBL3045739, “Synthesis and Fungicidal Activity of 6-Alkyl Six-membered Cyclic Thiophosphates” (1997).

What was measured:
Assay type in all cases: functional
[1] = system: Athelia rolfsii; test: Fungicidal activity against Athelia rolfsii assessed as fungal growth inhibition at 100 ppm by agar dilution method; details: Agroathelia rolfsii; read-out: GI
[2] = system: Pythium; test: Fungicidal activity against Pythium sp. assessed as fungal growth inhibition at 100 ppm by agar dilution method; details: read-out: GI
[3] = system: Pythium; test: Fungicidal activity against Pythium sp. assessed as fungal growth inhibition at 10 ppm by agar dilution method; details: read-out: GI
[4] = system: Athelia rolfsii; test: Fungicidal activity against Athelia rolfsii assessed as fungal growth inhibition at 10 ppm by agar dilution method; details: Agroathelia rolfsii; read-out: GI

Row | Structure (SMILES) | inhibition of growth at 100 ppm [1] [%] | inhibition of growth at 100 ppm [2] [%] | inhibition of growth at 10 ppm [3] [%] | inhibition of growth at 10 ppm [4] [%]
1 | CCOP1(=S)OCc2cc(C(C)CC)ccc2O1 (stereo unspecified) | 67 | 56 | – | –
2 | CCCCc1ccc2c(c1)COP(=S)(OCC)O2 (stereo unspecified) | 76 | 61 | – | –
3 | CCCCc1ccc2c(c1)COP(=S)(Oc1ccc(C)cc1C(C)C)O2 (stereo unspecified) | 41 | 39 | – | –
4 | CCCCc1ccc2c(c1)COP(=S)(Oc1cc(C)ccc1C(C)C)O2 (stereo unspecified) | 58 | 83 | 23 | –
5 | CCCc1ccc2c(c1)COP(=S)(OCCc1ccccc1)O2 (stereo unspecified) | 48 | 48 | – | –
6 | CCCc1ccc2c(c1)COP(=S)(Oc1cc(C)ccc1C(C)C)O2 (stereo unspecified) | 37 | 53 | – | –
7 | CCCc1ccc2c(c1)COP(=S)(Oc1ccc(C)cc1C(C)C)O2 (stereo unspecified) | 27 | 3 | – | –
8 | CCCc1ccc2c(c1)COP(=S)(OCC)O2 (stereo unspecified) | 84 | 56 | – | 63
9 | CCOP1(=S)OCc2cc(C(C)C)ccc2O1 (stereo unspecified) | 83 | 66 | – | 45
10 | CCOP1(=S)OCc2cc(CC)ccc2O1 (stereo unspecified) | 91 | 82 | 42 | 66
11 | CC(C)OP(=O)(OC(C)C)SCc1ccccc1 [IPROBENFOS] | 100 | 89 | 42 | 69
12 | COP1(=S)OCc2ccccc2O1 (stereo unspecified) [SALITHION] | 61 | 75 | – | –
